For assay [1], the target named is T1, Steroid 5-alpha-reductase (Rattus norvegicus, UniProt P24008+P31214).
T1 sequence (P24008 whole entry): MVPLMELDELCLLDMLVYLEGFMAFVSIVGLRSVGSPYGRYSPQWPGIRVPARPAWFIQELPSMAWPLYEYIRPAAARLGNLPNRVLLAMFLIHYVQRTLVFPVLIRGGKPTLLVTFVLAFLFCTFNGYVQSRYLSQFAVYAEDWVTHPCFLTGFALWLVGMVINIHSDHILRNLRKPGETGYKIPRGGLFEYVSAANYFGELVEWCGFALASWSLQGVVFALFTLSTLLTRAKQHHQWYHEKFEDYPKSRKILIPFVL
T1 sequence (P31214 whole entry): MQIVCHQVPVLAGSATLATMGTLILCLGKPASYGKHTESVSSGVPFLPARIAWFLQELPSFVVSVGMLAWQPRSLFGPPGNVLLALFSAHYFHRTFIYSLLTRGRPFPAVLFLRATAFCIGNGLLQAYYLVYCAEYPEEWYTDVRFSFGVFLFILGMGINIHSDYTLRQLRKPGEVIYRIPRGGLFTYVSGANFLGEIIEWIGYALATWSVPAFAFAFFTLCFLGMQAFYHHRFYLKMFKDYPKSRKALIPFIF
In words: In vitro inhibitory activity against rat testosterone 5 alpha reductase was determined. Type of assay: protein assay.

Assay [2] addresses T2, 3-oxo-5-alpha-steroid 4-dehydrogenase 2 (Homo sapiens, UniProt P31213).
T2 sequence (P31213 whole entry): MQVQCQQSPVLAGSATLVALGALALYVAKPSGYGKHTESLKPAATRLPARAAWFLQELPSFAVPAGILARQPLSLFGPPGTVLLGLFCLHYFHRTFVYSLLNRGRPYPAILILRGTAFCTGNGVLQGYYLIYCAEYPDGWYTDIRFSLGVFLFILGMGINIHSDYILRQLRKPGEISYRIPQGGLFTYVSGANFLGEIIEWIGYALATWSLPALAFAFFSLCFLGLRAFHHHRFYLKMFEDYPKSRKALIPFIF
In words: In vitro inhibitory activity against human Steroid 5-alpha-reductase type 2 in COS-1 cells was determined. Format: cell-based.

Assay [3] concerns the target T3, 3-oxo-5-alpha-steroid 4-dehydrogenase 1 (Homo sapiens, UniProt P18405).
T3 sequence (P18405 whole entry): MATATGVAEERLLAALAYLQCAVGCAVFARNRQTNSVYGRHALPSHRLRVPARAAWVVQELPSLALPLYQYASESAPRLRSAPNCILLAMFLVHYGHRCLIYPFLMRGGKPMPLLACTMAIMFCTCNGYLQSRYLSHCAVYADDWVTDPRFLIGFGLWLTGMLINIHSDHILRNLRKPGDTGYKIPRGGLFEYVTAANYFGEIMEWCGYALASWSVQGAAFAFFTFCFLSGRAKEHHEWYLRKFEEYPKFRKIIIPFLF
The assay can be described thus: In vitro inhibitory activity against human Steroid 5-alpha-reductase type 1 in COS-1 cells was determined. Format: cell-based.

Each structure is given as a SMILES string. A value given as a limit tells only on which side of the number the result lay.

Seven compounds from ChEMBL document CHEMBL1131643, “Synthesis and 5 alpha-reductase inhibitory activities of benzofuran derivatives with a carbamoyl group” (Bioorg Med Chem Lett, 1998) can be followed below.

One may read the IC50 as the point on the concentration scale where inhibition reaches its midpoint. A low value points to inhibition by little substance. As for `O=C(O)CCCOc1ccccc1-c1cc2ccc(C(=O)NC(c3ccccc3)c3ccccc3)cc2o1`, the IC50 in assay [1] is 28.5 nM; in assay [2] it was 270 nM; in assay [3], 62 nM.
In the same order, the values of `O=C(O)CCCOc1ccccc1-c1cc2ccc(C(=O)NC(c3ccc(F)cc3)c3ccc(F)cc3)cc2o1` are 37.9 nM, 340 nM and 50 nM.
In the case of `COc1ccc(C(NC(=O)c2ccc3cc(-c4ccccc4OCCCC(=O)O)oc3c2)c2ccc(OC)cc2)cc1`, the 50% inhibitory concentration (IC50) came to 35.5 nM in assay [1], 930 nM in assay [2] and 130 nM in assay [3].
In the same order, the values of `O=C(O)CCCOc1ccccc1-c1cc2cc(C(=O)NC(c3ccccc3)c3ccccc3)ccc2o1` are 155 nM, over 100000 nM and 310 nM.
In the same order, the values of `CC(C)Cc1ccc(C(Nc2cccc(C(=O)c3cn(CCCC(=O)O)c4ccccc34)c2)c2ccc(CC(C)C)cc2)cc1` are 118 nM, 11 nM and 3 nM.
In assay [1], `COc1ccc(C(NC(=O)c2ccc3oc(-c4ccccc4OCCCC(=O)O)cc3c2)c2ccc(OC)cc2)cc1` had a half-maximal inhibitory concentration (IC50) of 26.3 nM.
Same read-out and setting: the same measure for `O=C(O)CCCOc1ccccc1-c1cc2cc(C(=O)NC(c3ccc(F)cc3)c3ccc(F)cc3)ccc2o1`: 279 nM.
